Like-named read-outs stand apart in the source and are kept apart here.
Assays:
splenocytes = assay: Splenic cell proliferation assay (anti-IgM stimulated, Cell Titer-Glo); assay type: cell-based, mouse (CD1); conditions: Splenocyte; mouse splenocytes, 2.5 μg/ml anti-IgM F(ab')2, 72 h; read-out: Spleen cell EC50
Experimental: Proliferation of splenocytes in response to anti-IgM can be blocked by inhibition of BTK. Splenocytes were obtained from 6 week old male CD1 mice (Charles River Laboratories Inc.). Mouse spleens were manually disrupted in PBS and filtered using a 70um cell strainer followed by ammonium chloride red blood cell lysis. Cells were washed, resuspended in Splenocyte Medium (HyClone RPMI supplemented with 10% heat-inactivated FBS, 0.5X non-essential amino acids, 10 mM HEPES, 50 μM beta mercaptoethanol) and incubated at 37° C., 5% CO2 for 2h to remove adherent cells. Suspension cells were seeded in 96 well plates at 50,000 cells per well and incubated at 37° C., 5% CO2 for 1h. Splenocytes were pre-treated in triplicate with 10,000 nM curves of Formula 1 compounds for 1h, followed by stimulation of cell proliferation with 2.5 μg/ml anti-IgM
F(ab′)2 (Jackson ImmunoResearch) for 72 h. Cell proliferation was measured by Cell Titer-Glo Luminescent Assay (Promega). EC50 values (50% proliferation in the presence of compound as compared to vehicle treated controls) were calculated from dose response compound curves using GraphPad Prism Software.

human BTK = biological target: T1, human BTK (Homo sapiens, UniProt Q06187); assay: BTK kinase inhibition, KinaseProfiler radiometric protein kinase assay (Eurofins); assay type: biochemical
T1 construct: purchased Eurofins Pharma Discovery Services UK Limited (contract assay, KinaseProfiler)
T1 sequence (Q06187 whole entry): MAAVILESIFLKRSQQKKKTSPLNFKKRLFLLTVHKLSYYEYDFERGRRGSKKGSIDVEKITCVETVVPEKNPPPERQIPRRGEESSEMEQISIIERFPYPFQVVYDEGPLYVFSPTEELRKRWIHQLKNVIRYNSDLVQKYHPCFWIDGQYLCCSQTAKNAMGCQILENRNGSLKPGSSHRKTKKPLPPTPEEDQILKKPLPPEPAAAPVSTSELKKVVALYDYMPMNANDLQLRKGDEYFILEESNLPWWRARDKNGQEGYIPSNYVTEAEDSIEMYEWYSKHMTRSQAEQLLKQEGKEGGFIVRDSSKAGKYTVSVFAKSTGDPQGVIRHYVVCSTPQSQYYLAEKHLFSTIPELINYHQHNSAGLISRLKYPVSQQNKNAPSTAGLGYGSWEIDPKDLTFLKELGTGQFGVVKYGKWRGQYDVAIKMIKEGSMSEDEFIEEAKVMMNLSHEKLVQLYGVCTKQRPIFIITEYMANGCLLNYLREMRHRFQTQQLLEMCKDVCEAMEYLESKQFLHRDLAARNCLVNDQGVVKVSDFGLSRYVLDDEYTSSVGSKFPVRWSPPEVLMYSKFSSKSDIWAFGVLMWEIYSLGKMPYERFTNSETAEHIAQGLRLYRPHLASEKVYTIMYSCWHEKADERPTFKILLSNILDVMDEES
Experimental: In vitro potency of selected compound was defined against human BTK, EGFR, and ErbB2 kinases using Kinase Profiler radiometric protein kinase assays performed at Eurofins Pharma Discovery Services UK Limited.
Each kinase is diluted in buffer and all compounds were prepared to 50x final assay concentration in 100% DMSO. This working stock of the compound was added to the assay well as the first component in the reaction, followed by the remaining components as detailed in the assay protocol listed above. The reaction was initiated by the addition of the MgATP mix. […] (specific activity approx. 500 cpm/pmol, concentration as required) and variable test article concentrations. […] The reaction was stopped by the addition of 3% phosphoric acid solution. 10 μL of the reaction is then spotted onto a P30 filtermat and washed three times for 5 minutes in 75 mM phosphoric acid and once in methanol prior to drying and scintillation counting. In addition positive control wells contain all components of the reaction, except the compound of interest; however, DMSO (at a final concentration of 2%) were included in these wells to control for solvent effects as well as blank wells contain all components of the reaction, with a reference inhibitor replacing the compound of interest. This abolishes kinase activity and establishes the base-line (0% kinase activity remaining). The potency of each compound was reported by estimating the EC50.

[1] = test system: TMD-8 human activated B cell diffuse large B cell lymphoma cells; assay: TMD-8 survival assay (Cell Titer-Glo); assay type: cell-based; conditions: TMD8, TMD-8 cells, 72 h
Experimental: TMD-8 human activated B cell diffuse large B cell lymphoma cells were seeded in 96-well plates at a density of 20,000 cells/well in HyClone RPMI supplemented with 10% FBS (Fisher)/1% Penicillin/Streptomycin (HyClone) and incubated at 37° C., 5% CO2. Cells were treated in triplicate with 1,000 nM or 100 nM curves of compounds for 72h. Cell survival was measured by Cell Titer-Glo Luminescent Assay (Promega). EC50 values (50% proliferation in the presence of compound as compared to vehicle treated controls) were calculated from dose response compound curves using GraphPad Prism Software.

[2] = Formation of glutathione adducts (GSH reactivity, HPLC-UV); assay type: in vitro ADME; conditions: 10 mM GSH, 20 micromolar test article, pH 7.4, 37° C.
Experimental: Generation of non-specific thiol adducts can be measured by assaying reactivity of compounds with GSH. Formation of GSH adducts was measured by incubating GSH (10 mM) in 100 mM Phosphate Buffer pH 7.4 with test article at 20 micromolar final concentration. Briefly, 600 microliters of phosphate buffer pH 7.4 was added in a glass vial with 200 microliters of 100 micromolar test article in DMSO. Samples were warmed at 37° C. for 10 minutes and the reaction was initiated by the addition of 200 microliters of 50 mM reduced GSH in phosphate buffer pH 7.4 and incubated at 37° C. At various time points (0.5 min, 5 min, 15 min, 30 min, 60 min, 120 min and 180 min) 50 microliter aliquots were placed into an injection vial equipped with an insert and mixed with 50 microliters of 1% formic acid in 99% Methanol. Vials were loaded onto the HPLC injection tray and each sample was injected onto a C18 column (ACE 3 C18, 4.6×50 mm column) and both the parent and product were monitored by UV absorbance at 254 nm on an Agilent Technologies 1100 series HPLC. Peaks were integrated and the percentage of product present calculated as the percent of the total peak area on the parent and product at 60 minutes.

[3] = Mouse plasma pharmacokinetics; assay type: in vivo, mouse (CD-1); conditions: male, CD-1, mouse, mice
Experimental: Plasma pharmacokinetic studies were conducted in CD1 mice to compare the plasma exposure following oral and intravenous administration of the free-base form of each compound to mice and to calculate bioavailability. Male CD-1 mice (25-30 g on delivery; Charles River) were used for mouse PK studies. The mice were housed 3 per cage in a room under controlled conditions of temperature ([…]) and humidity (40-70%), with a 12 h dark/light cycle. The animals were acclimated for a minimum of 3 days prior to use and received standard rodent chow (Charles River) and municipal tap water ad libitum. Nine animals were used per study, they were dosed PO or IV and bled from the mandibular vein, 2 to 3 times per animal at the following time points; pre dose, 15 and 30 min, 1, 2, 3, 5, 7 and 24 h (0.1 mL whole blood /time point; composite PK). Blood was collected into microvette K3E tubes ([…]) at RT and then centrifuged at 5,000 RPM for 2 min at 4° C. in order to separate plasma. Isolated plasma (0.015 mL/time point) was pipetted into 96 well plates (Canadian Life Science) which were stored at minus 20° C. until analysis (2 duplicate plates per study).
Concentrations of compound in rodent plasma samples were determined by LC-MS-MS. Two standard curves containing 8 points each were prepared by spiking in methanol or plasma with a solution containing the test article at a defined concentration. The range of final compound concentration in the standard curve was 0 to 1 μg/mL. Three sets of quality control (QC) samples in plasma at low, medium and high concentration within the standard curve range were also prepared. For analysis, the compound was extracted using protein precipitation extraction procedure. Briefly, a three-fold volume of methanol containing an internal standard was added to the plasma and standard curve solution samples and then incubated at 4° C. for 5 minutes. The plates were centrifuged for 30 minutes at 4° C. at 4000 rpm and the resulting supernatant was transferred to a 96-well propylene plates and sealed with cover to avoid sample evaporation. Ten μL aliquots of extracted samples were injected using a 96-well plate autosampler held at 4° C. onto a ACE C18 50×4.6 mm, 3 um HPLC column held at 30° C. Plasma derived parent compound was eluted using the following conditions: pump flow rate was set at 1 mL/min for a five minutes chromatographic method using a 3 min gradient elution from 20% solvent A (0.1% formic acid in water) and 80% solvent B (0.1% Formic Acid in Methanol) to 10% solvent A and 90% solvent B. The method was followed by 1 min column wash at 95% solvent B and 1 min column re-equilibration back to 80% solvent B. Under these conditions the compound was eluted after 1.8 minutes. For LC-MS-MS compound detection, the curtain gas was set at 10, collision gas was set at 8, ion spray voltage was set at 4500, temperature was set at 500, ion source gas 1 was set at 40 and ion source gas 2 was set at 60. Using a positive ionization mode, the MRM transition monitored was set at […]. Under these conditions, standard curves were linear up to 2000 ng/mL, the lower limit of quantification was generally at 10 ng/mL.
The area under the curve (AUCtot and AUClast), the maximum plasma concentration (Cmax) and time (Tmax), and terminal half life (T1/2), clearance and volume of distribution were calculated by regression analysis using Kinetica version 5.0 (Thermo Fisher Scientific) using a Non-Compartmental Extravascular/IV Bolus analysis model.

SMILES	IC50 (human BTK) [nM]	GSH Reactivity GSH Conjugate at 60 minutes [2]	AUC ([3]; intravenous 3 mg/kg, free base, read-out: Intravenous AUC) [ng·h/mL]	bioavailability ([3]; oral 10 mg/kg vs intravenous 3 mg/kg) [%]	Cmax ([3]; oral 10 mg/kg, free base) [ng/mL]	AUC ([3]; oral 10 mg/kg, free base, read-out: Oral AUC) [ng·h/mL]	EC50 (splenocytes) [nM]	EC50 [1] [nM]
CC#CC(=O)N(C)[C@H]1C[C@@H](n2nc(-c3ccc(Oc4ccccc4)cc3)c3c(N)ncnc32)C1 [Compound 4]	1	8.4 % of total Peaks					0.8	5.4
C=CC(=O)N1CCC[C@@H](n2nc(-c3ccc(Oc4ccccc4)cc3)c3c(N)ncnc32)C1 [Reference, 1-((R)-3-(4-amino-3-(4-phenoxyphenyl)-1H-pyrazolo[3,4-d]pyrimidin-1-yl)piperidin-1-yl)prop-2-en-1-one, reference compound]		31.7 % of total Peaks	1070	9.8	219	349	0.4	2
C=CC(=O)N(C)[C@H]1C[C@@H](n2nc(-c3ccc(Oc4ccccc4)cc3)c3c(N)ncnc32)C1 [Compound 5]	0.7	28.9 % of total Peaks					0.5	1.9

Second part, led by results:

IC50 (human BTK) [nM]	GSH Reactivity GSH Conjugate at 60 minutes [2]	AUC ([3]; intravenous 3 mg/kg, free base, read-out: Intravenous AUC) [ng·h/mL]	bioavailability ([3]; oral 10 mg/kg vs intravenous 3 mg/kg) [%]	Cmax ([3]; oral 10 mg/kg, free base) [ng/mL]	AUC ([3]; oral 10 mg/kg, free base, read-out: Oral AUC) [ng·h/mL]	SMILES	EC50 (splenocytes) [nM]	EC50 [1] [nM]
1	5.9 % of total Peaks					CC#CC(=O)N[C@H]1C[C@@H](n2nc(-c3ccc(Oc4ccccc4)cc3F)c3c(N)ncnc32)C1 [Compound 7]	0.4	1.5
10	12.6 % of total Peaks					C=CC(=O)N[C@H]1C[C@@H](n2nc(-c3ccc(Oc4ccc(F)cc4F)cc3)c3c(N)ncnc32)C1 [Compound 3]	0.9	6.5
3	12.6 % of total Peaks					C=CC(=O)N[C@H]1C[C@@H](n2nc(-c3ccc(Oc4ccccc4)cc3F)c3c(N)ncnc32)C1 [Compound 6]	0.4	3

Source: patent publication US20200247808A1, “Heterocyclic Tec-Family Kinase Inhibitors” (GB005, Inc., priority 2015, published 2020)
